The target in the assay is T1, human mAChR M4 (Homo sapiens, UniProt P08173).
T1 construct: expressed in transfected cells; host or cells: CHO-K1 (ATCC), stably expressing hM4 and Gqi5
T1 sequence (P08173 1-479): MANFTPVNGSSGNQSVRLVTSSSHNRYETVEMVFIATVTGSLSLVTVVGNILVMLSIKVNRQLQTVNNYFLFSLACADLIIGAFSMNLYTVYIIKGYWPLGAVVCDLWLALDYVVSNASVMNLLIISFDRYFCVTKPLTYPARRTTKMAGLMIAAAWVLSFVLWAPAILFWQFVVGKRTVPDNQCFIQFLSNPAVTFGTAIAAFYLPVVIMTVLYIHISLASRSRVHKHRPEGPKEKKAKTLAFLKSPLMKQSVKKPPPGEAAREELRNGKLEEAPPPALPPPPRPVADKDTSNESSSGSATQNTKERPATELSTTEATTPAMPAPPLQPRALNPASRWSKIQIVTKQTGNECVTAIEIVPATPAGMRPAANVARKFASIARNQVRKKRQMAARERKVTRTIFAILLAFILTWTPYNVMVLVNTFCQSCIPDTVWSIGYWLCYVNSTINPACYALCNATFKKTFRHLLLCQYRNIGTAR
In words: mAChR M4 cell-based functional assay: calcium flux (Fluo-4, FDSS), positive allosteric modulator activity on the EC20 acetylcholine response, hM4-Gqi5 CHO-K1 cells. As to conditions: for Emax at 30 µM: CHO-K1, human M4, % ACh maximum at 30 μM; for EC50: human M4, PAM activity on EC20 acetylcholine response, calcium flux, read-out: Human M4 EC50. The essentials:
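Potentiation was taken as the concentration-dependent rise in the EC20 acetylcholine calcium response, fitted by a four-parameter logistic with EC20 as baseline. Fluo-4-loaded hM4-Gqi5 CHO-K1 cells received 11-point, threefold-diluted compound before acetylcholine at 144 s; FDSS read at 1 Hz.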
Background: Calcium flux is commonly read through the fluorescence of an indicator in the cells.

Consider 22 compounds from patent US20250026752A1, “POSITIVE ALLOSTERIC MODULATORS OF THE MUSCARINIC ACETYLCHOLINE RECEPTOR M4” (Vanderbilt University, priority 2021, published 2025).

Molecules are shown by their SMILES.

For the compound `Fc1ccc2nc(Nc3ccccc3F)nc(N3CCc4ncc(C(F)(F)F)cc4C3)c2c1` [Compound 200, 6-fluoro-N-(2-fluorophenyl)-4-[3-(trifluoromethyl)-7,8-dihydro-5H-1,6-naphthyriidn-6-yl]quinazolin-2-amine], the Emax at 30 µM came to 63% and the EC50 was over 10000 nM.

In the case of `C[C@H]1CN(c2ncnc3ccc(F)cc23)Cc2cc(N3CCOCC3)cnc21` [Compound 262, (S)-4-(6-(6-fluoroquinazolin-4-yl)-8-methyl-5,6,7,8-tetrahydro-1,6-naphthyridin-3-yl)morpholine], the maximal effect (Emax) at 30 µM came out at 73% and the half-maximal effective concentration (EC50) came to 260 nM.

On to `Cc1ccc2nc(C)nc(N3CCc4ncc(N5CCOc6ncccc65)cc4C3)c2c1` [Compound 99, 1-[6-(2,6-dimethylquinazolin-4-yl)-7,8-dihydro-5H-1,6-naphthyridin-3-yl]-2,3-dihydropyrido[2,3-b][1,4]oxazine], for which the Emax at 30 µM stood at 101% and the half-maximal effective concentration (EC50) stood at 100 nM.

As to `Fc1cc2ncnc(N3CCc4ncc(N5CCOc6ncccc65)cc4C3)c2cc1F` [Compound 98, 1-[6-(6,7-difluoroquinazolin-4-yl)-7,8-dihydro-5H-1,6-naphthyridin-3-yl]-2,3-dihydropyrido[2,3-b][1,4]oxazine], the maximal response (Emax) at 30 µM turned out to be 97% and the EC50 was found to be 30 nM.

On to `Cc1nc(N2CCc3ncc(N4CCO[C@@H](c5ccccc5)C4)cc3C2)c2cc(F)ccc2n1` [Compound 222, (S)-4-(6-(6-fluoro-2-methylquinazolin-4-yl)-5,6,7,8-tetrahydro-1,6-naphthyridin-3-yl)-2-phenylmorpholine], for which the Emax at 30 µM stood at 50% and the EC50 came out at 3470 nM.

Turning to `Cc1ccc2ncnc(N3CCc4ncc(C5CC5)cc4C3)c2c1` [Compound 160, 4-(3-cyclopropyl-7,8-dihydro-5H-1,6-naphthyridin-6-yl)-6-methyl-quinazoline], the Emax at 30 µM was determined as 90% and the EC50 stood at 30 nM.

`Cc1ccc2nc(N3CCCC3)nc(N3CCc4ncc(C(F)(F)F)cc4C3)c2c1` [Compound 206, 6-methyl-2-pyrrolidin-1-yl-4-[3-(trifluoromethyl)-7,8-dihydro-5H-1,6-naphthyridin-6-yl]quinazoline]: the maximum response (Emax) at 30 µM is 74% and the EC50 stood at 720 nM.

Turning to `c1cnc2nc(N3CCOCC3)nc(N3CCc4ncc(N5CCCn6nccc65)cc4C3)c2c1` [Compound 250, 4-(4-(3-(6,7-dihydropyrazolo[1,5-a]pyrimidin-4(5H)-yl)-7,8-dihydro-1,6-naphthyridin-6(5H)-yl)pyrido[2,3-d]pyrimidin-2-yl)morpholine], the maximum response (Emax) at 30 µM worked out at 73% and the 50% effective concentration (EC50) is 360 nM.

Take `CC1CN(c2ncnc3cc(F)c(F)cc23)Cc2cc(N3CCOCC3)cnc21` (centres unmarked) [Compound 252, 4-(6-(6,7-difluoroquinazolin-4-yl)-8-methyl-5,6,7,8-tetrahydro-1,6-naphthyridin-3-yl)morpholine]: the maximal response (Emax) at 30 µM was found to be 90% and the 50% effective concentration (EC50) is 150 nM.

On to `Cc1cnn(C)c1-c1cnc2c(c1)CN(c1ncnc3ccc(F)cc13)CC2` [Compound 266, 4-(3-(1,4-dimethyl-1H-pyrazol-5-yl)-7,8-dihydro-1,6-naphthyridin-6(5H)-yl)-6-fluoroquinazoline], for which the Emax at 30 µM amounted to 90% and the EC50 came to 60 nM.

Regarding `Cc1noc(C)c1-c1cnc2c(c1)CN(c1ncnc3cc(F)c(F)cc13)CC2` [Compound 240, 4-(6-(6,7-difluoroquinazolin-4-yl)-5,6,7,8-tetrahydro-1,6-naphthyridin-3-yl)-3,5-dimethylisoxazole], the maximum response (Emax) at 30 µM is 79% and the EC50 was found to be 210 nM.

On to `Clc1nc(N2CCc3ncc(-c4cnn(C5CC5)c4)cc3C2)c2cccnc2n1` [Compound 34, 2-chloro-4-[3-(1-cyclopropylpyrazol-4-yl)-7,8-dihydro-5H-1,6-naphthyridin-6-yl]pyrido[2,3-d]pyrimidine], for which the Emax at 30 µM stood at 53% and the EC50 stood at 600 nM.

Regarding `Cc1nc(N2CCc3ncc(-c4ccnn4C(C)C)cc3C2)c2cc(Cl)ccc2n1` [Compound 254, 6-chloro-4-(3-(1-isopropyl-1H-pyrazol-5-yl)-7,8-dihydro-1,6-naphthyridin-6(5H)-yl)-2-methylquinazoline], the maximal effect (Emax) at 30 µM turned out to be 86% and the EC50 turned out to be 360 nM.

As for `Cc1nc(N2CCc3ncc(C(F)(F)F)cc3C2)c2cc(C3CC3)ccc2n1` [Compound 143, 6-cyclopropyl-2-methyl-4-[3-(trifluoromethyl)-7,8-dihydro-5H-1,6-naphthyridin-6-yl]quinazoline], the Emax at 30 µM was found to be 77% and the EC50 came out at 1420 nM.

Regarding `Cc1ccc(Oc2cnc3c(c2)CN(c2ncnc4ccc(F)cc24)CC3)c(F)c1` [Compound 144, 6-fluoro-4-[3-(2-fluoro-4-methyl-phenoxy)-7,8-dihydro-5H-1,6-naphthyridin-6-yl]quinazoline], the Emax at 30 µM was found to be 74% and the half-maximal effective concentration (EC50) is 1890 nM.

Take `Cc1nn(C)cc1-c1cnc2c(c1)CN(c1ncnc3ccc(F)cc13)CC2` [Compound 11, 4-[3-(1,3-dimethylpyrazol-4-yl)-7,8-dihydro-5H-1,6-naphthyridin-6-yl]-6-fluoro-quinazoline]: the maximum response (Emax) at 30 µM stood at 83% and the concentration giving a half-maximal response (EC50) was found to be 100 nM.

Regarding `c1cnc2nc(N3CCCC3)nc(N3CCc4ncc(N5CCCn6nccc65)cc4C3)c2c1` [Compound 246, 4-(3-(6,7-dihydropyrazolo[1,5-a]pyrimidin-4(5H)-yl)-7,8-dihydro-1,6-naphthyridin-6(5H)-yl)-2-(pyrrolidin-1-yl)pyrido[2,3-d]pyrimidine], the maximal effect (Emax) at 30 µM amounted to 63% and the EC50 amounted to 50 nM.

Take `CC1CN(c2ncnc3ccc(F)cc23)Cc2cc(N3CCOCC3)cnc21` (centres unmarked) [Compound 236, 4-(6-(6-fluoroquinazolin-4-yl)-8-methyl-5,6,7,8-tetrahydro-1,6-naphthyridin-3-yl)morpholine]: the maximal response (Emax) at 30 µM was 86% and the EC50 was 140 nM.

In the case of `FC(F)(F)c1cnc2c(c1)CN(c1nc(Cl)nc3ccc(Cl)cc13)CC2` [Compound 141, 2,6-dichloro-4-[3-(trifluoromethyl)-7,8-dihydro-5H-1,6-naphthyridin-6-yl]quinazoline], the maximal response (Emax) at 30 µM turned out to be 95% and the EC50 was determined as 220 nM.

Turning to `Cc1ccc(F)c(Oc2cnc3c(c2)CN(c2ncnc4ccc(Cl)cc24)CC3)c1` [Compound 152, 6-chloro-4-[3-(2-fluoro-5-methyl-phenoxy)-7,8-dihydro-5H-1,6-naphthyridin-6-yl]quinazoline], the Emax at 30 µM is 72% and the EC50 was found to be 5290 nM.

For `Cc1ccc(-c2cnc3c(c2)CN(c2nc(Cl)nc4cc(Cl)c(F)cc24)CC3)cn1` [Compound 63, 2,7-dichloro-6-fluoro-4-[3-(6-methyl-3-pyridyl)-7,8-dihydro-5H-1,6-naphthyridin-6-yl]quinazoline], the Emax at 30 µM was determined as 26% and the 50% effective concentration (EC50) came to 400 nM.

In the case of `Cc1ccc(-c2cnc3c(c2)CN(c2nc(C)nc4ccc(C(F)(F)F)cc24)CC3)cn1` [Compound 58, 2-methyl-4-[3-(6-methyl-3-pyridyl)-7,8-dihydro-5H-1,6-naphthyridin-6-yl]-6-(trifluoromethyl)quinazoline], the maximal response (Emax) at 30 µM was determined as 45% and the EC50 worked out at 1220 nM.

The Emax is the size of the effect at its maximum, as opposed to the concentration needed. Usually EC50 stands for the midpoint of the concentration-response curve.
